Assay: recombinant UMI read abundance after kanamycin selection (control-corrected) (log10(CPM+1)); higher = more efficient recombination; extreme values may be limits of the assay; sequences stand for … in AGTGCAGAGAAAATCGGCCAGTTTTCTCTGCCTGCAGTCCGCATGCCGTGGGACCCCTTGGGTTCTAACCTGTTGCCTAGATTTATGCAGCGGACTGCCTTTCTCCCAAAGTGATAAACCGG…AGGTTGGTTTCACT; site = the 11-nt donor
Summary of the method: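 In Escherichia coli, a pool of donor and donor-binding-loop pairs, each with a 12-nt UMI, was tested for the IS621 bridge recombinase. Plating was on IPTG (0.07 mM) plus kanamycin, or without selection, in two replicates. Recombinant UMIs were amplified by PCR across the donor–target junction and sequenced, and counts were reported as log10(CPM+1) after averaging and control-derived scaling.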
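Note: IS621 bridge recombinase in Escherichia coli cells against a fixed T5 target plasmid.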

| Sequence | recombinant UMI read abundance (log10) |
| --- | --- |
| ATCCAACCATGGACCGGTTTTCCCGGTAATCCGTATTTGAG (site ATCCAACCTCT) | 0 |
| ATCCAACCATGGACCGGTTTTCCCGGTAATCCGTATTTGAG (site ATCCAAGCTCT) | 0.133 |
| ATCCAACCATGGACCGGTTTTCCCGGTAATCCGTATTTGAG (site ATCCAATCTCT) | 0.257 |
| ATCCAGGCATGGACCGGTTTTCCCGGTAATCCGTATTTGTG (site ATCCAGGCTCA) | 0.328 |
| ATCCCGGCATGGACCGGTTTTCCCGGTAATCCGTATTTGGG (site ATCCCGGCTCC) | 0.00576 |
| ATCCCTACATGGACCGGTTTTCCCGGTAATCCGTATTTGCA (site ATCCCTACTTG) | 1.81 |
| ATCCCTGCATGGACCGGTTTTCCCGGTAATCCGTATTTGTG (site ATCCCTGCTCA) | 0.13 |
| ATCCCTTCATGGACCGGTTTTCCCGGTAATCCGTATTTGTG (site ATCCCTTCTCA) | 0.0697 |
| ATCCGTCCATGGACCGGTTTTCCCGGTAATCCGTATTTGAC (site ATCCGTCCTGT) | 0.00623 |
| ATCCGTCCATGGACCGGTTTTCCCGGTAATCCGTATTTGAT (site AACCGTCCTAT) | 0.00762 |
| ATCCGTCCATGGACCGGTTTTCCCGGTAATCCGTATTTGAT (site ACCCGTCCTAT) | 0.0678 |
| ATCCGTCCATGGACCGGTTTTCCCGGTAATCCGTATTTGAT (site AGCCGTCCTAT) | 0.00385 |
| ATCCGTCCATGGACCGGTTTTCCCGGTAATCCGTATTTGAT (site ATCCGTCCTAT) | 0.0236 |
| ATCCTGACATGGACCGGTTTTCCCGGTAATCCGTATTTGAA (site ATCCTGACTTT) | 0.419 |
| ATCCTGGCATGGACCGGTTTTCCCGGTAATCCGTATTTGAA (site ATCCTGGCTTT) | 1.24 |
| ATCGAAGCATGGACCGGTTTTCCCGGTAATCCGTATTTGAG (site ATCAAAGCTCT) | 2.12 |
| ATCGAAGCATGGACCGGTTTTCCCGGTAATCCGTATTTGAG (site ATCCAAGCTCT) | 0.355 |
| ATCGAAGCATGGACCGGTTTTCCCGGTAATCCGTATTTGAG (site ATCGAAGCTCT) | 2.1 |
| ATCGAAGCATGGACCGGTTTTCCCGGTAATCCGTATTTGAG (site ATCTAAGCTCT) | 0.58 |
| ATCGACTCATGGACCGGTTTTCCCGGTAATCCGTATTTGAG (site ATCGACTCTCT) | 1.67 |
| ATCGAGTCATGGACCGGTTTTCCCGGTAATCCGTATTTGTA (site ATCGAGTCTTA) | 3.05 |
| ATCGATTCATGGACCGGTTTTCCCGGTAATCCGTATTTGAG (site ATCGATTCTCT) | 2.41 |
| ATCGGGACATGGACCGGTTTTCCCGGTAATCCGTATTTGTG (site ATCGGGACTCA) | 0.972 |

| Sequence | recombinant UMI read abundance (log10) |
| --- | --- |
| ATCTAAGCATGGACCGGTTTTCCCGGTAATCCGTATTTGAG (site ATCAAAGCTCT) | 0.792 |
| ATCTAAGCATGGACCGGTTTTCCCGGTAATCCGTATTTGAG (site ATCCAAGCTCT) | 1.93 |
| ATCTAAGCATGGACCGGTTTTCCCGGTAATCCGTATTTGAG (site ATCGAAGCTCT) | 0.367 |
| ATCTAAGCATGGACCGGTTTTCCCGGTAATCCGTATTTGAG (site ATCTAAGCTCT) | 2.16 |
| ATCTATACATGGACCGGTTTTCCCGGTAATCCGTATTTGCC (site ATCTATACTGA) | 1.23 |
| ATCTATACATGGACCGGTTTTCCCGGTAATCCGTATTTGCC (site ATCTATACTGC) | 0 |
| ATCTATACATGGACCGGTTTTCCCGGTAATCCGTATTTGCC (site ATCTATACTGG) | 2.12 |
| ATCTATACATGGACCGGTTTTCCCGGTAATCCGTATTTGCC (site ATCTATACTGT) | 0.46 |
| ATCTATACATGGACCGGTTTTCCCGGTAATCCGTATTTGTC (site ATCTATACTGA) | 2.8 |
| ATCTATACATGGACCGGTTTTCCCGGTAATCCGTATTTGTC (site ATCTATACTGC) | 0 |
| ATCTATACATGGACCGGTTTTCCCGGTAATCCGTATTTGTC (site ATCTATACTGG) | 0 |
| ATCTATACATGGACCGGTTTTCCCGGTAATCCGTATTTGTC (site ATCTATACTGT) | 0 |
| ATCTGATCATGGACCGGTTTTCCCGGTAATCCGTATTTGCT (site ATCTGATCTAG) | 2.71 |
| ATCTTGGCATGGACCGGTTTTCCCGGTAATCCGTATTTGCT (site ATCTTGGCTAG) | 0 |
| ATGAACTCATGGACCGGTTTTCCCGGTAATCCGTATTTGGG (site ATGAACTCTCC) | 1.08 |
| ATGAAGACATGGACCGGTTTTCCCGGTAATCCGTATTTGCT (site AGGAAGACTTG) | 0 |
| ATGAAGACATGGACCGGTTTTCCCGGTAATCCGTATTTGCT (site ATGAAGACTAG) | 2.82 |
| ATGAATACATGGACCGGTTTTCCCGGTAATCCGTATTTGCA (site AGGAAGACTTG) | 0 |
| ATGAATACATGGACCGGTTTTCCCGGTAATCCGTATTTGCA (site ATGAATACTTG) | 2.21 |
| ATGAATACATGGACCGGTTTTCCCGGTAATCCGTATTTGGC (site ATGAATACTGC) | 1.69 |
| ATGAATTCATGGACCGGTTTTCCCGGTAATCCGTATTTGGT (site ATGAATTCTAC) | 2.57 |
| ATGAGGACATGGACCGGTTTTCCCGGTAATCCGTATTTGGG (site ATGAGGACTCC) | 0.399 |
| ATGATAACATGGACCGGTTTTCCCGGTAATCCGTATTTGCA (site ATGATAACTTG) | 2.08 |

| Sequence | recombinant UMI read abundance (log10) |
| --- | --- |
| ATGCAAGCATGGACCGGTTTTCCCGGTAATCCGTATTTGAG (site ATACAAGCTCT) | 2.24 |
| ATGCAAGCATGGACCGGTTTTCCCGGTAATCCGTATTTGAG (site ATCCAAGCTCT) | 0.701 |
| ATGCAAGCATGGACCGGTTTTCCCGGTAATCCGTATTTGAG (site ATGCAAGCTCT) | 2.26 |
| ATGCAAGCATGGACCGGTTTTCCCGGTAATCCGTATTTGAG (site ATTCAAGCTCT) | 0.614 |
| ATGCAAGCATGGACCGGTTTTCCCGGTAATCCGTATTTGGA (site ATGCAAGCTTC) | 1.86 |
| ATGCAGACATGGACCGGTTTTCCCGGTAATCCGTATTTGCA (site AGGAAGACTTG) | 0 |
| ATGCAGACATGGACCGGTTTTCCCGGTAATCCGTATTTGCA (site ATGCAGACTTG) | 2.15 |
| ATGCATGCATGGACCGGTTTTCCCGGTAATCCGTATTTGGT (site ATGCATGCTAC) | 1.67 |
| ATGCATGCATGGACCGGTTTTCCCGGTAATCCGTATTTGGT (site CTGCATGCTAC) | 0.628 |
| ATGCATGCATGGACCGGTTTTCCCGGTAATCCGTATTTGGT (site GTGCATGCTAC) | 0.323 |
| ATGCATGCATGGACCGGTTTTCCCGGTAATCCGTATTTGGT (site TTGCATGCTAC) | 0.601 |
| ATGCTCGCATGGACCGGTTTTCCCGGTAATCCGTATTTGAA (site ATGCTCGCTTT) | 1.82 |
| ATGGCACCATGGACCGGTTTTCCCGGTAATCCGTATTTGGG (site ATGGCACCTCC) | 0.00577 |
| ATGGGAGCATGGACCGGTTTTCCCGGTAATCCGTATTTGTA (site ATGGGAGCTTA) | 2.2 |
| ATGGGCCCATGGACCGGTTTTCCCGGTAATCCGTATTTGAC (site ATGGGCCCTGT) | 0.523 |
| ATGGGTACATGGACCGGTTTTCCCGGTAATCCGTATTTGGC (site ATGGGTACTGC) | 2.89 |
| ATGGTAGCATGGACCGGTTTTCCCGGTAATCCGTATTTGGA (site ATGGTAGCTTC) | 1.72 |
| ATGGTATCATGGACCGGTTTTCCCGGTAATCCGTATTTGAC (site ATGGTATCTGT) | 3.67 |
| ATGGTATCATGGACCGGTTTTCCCGGTAATCCGTATTTGAC (site CTAGTATCTGT) | 2.1 |
| ATGGTATCATGGACCGGTTTTCCCGGTAATCCGTATTTGCA (site ACAGTATCTTG) | 1.69 |
| ATGGTATCATGGACCGGTTTTCCCGGTAATCCGTATTTGCA (site ATGGTATCTTG) | 3.07 |
| ATGGTTTCATGGACCGGTTTTCCCGGTAATCCGTATTTGTA (site ATGGTTTCTTA) | 2.68 |

From the supplement of paper PMC11208160
